Entries after “also recorded” stand apart in the source; their conditions may differ. Marks after values point to notes of the source that are not given here.
Legend:
subjects with RRMS [1] = experiment: ALLEGRO sub-study: WM, GM and thalamic volume analysis (3D T1-weighted MRI); type: in vivo, human; conditions: for Grey matter fraction, % change, median (range) / Thalamic fraction, % change, LS mean (SE) / White matter fraction, % change, median (range): laquinimod 0.6 mg/day oral; for Grey matter fraction, treatment effect (Hodges-Lehmann median estimate for treatment difference) / Thalamic fraction, treatment effect (LS mean difference) / White matter fraction, treatment effect (Hodges-Lehmann median estimate for treatment difference): laquinimod vs placebo; for Treatment effect of laquinimod on thalamic fraction: patients with thalamic lesions at baseline
Description: WM, GM, and thalamic volumes were derived from 3D T1-weighted images at baseline and at months 12 and 24. Patients with baseline and at least one valid scheduled post-baseline MRI were included in the analysis. Patients with thalamic lesions at baseline and a valid post-baseline MRI were included in the thalamic lesion analysis. Longitudinal WM and GM volume changes were calculated as the percentage difference from baseline to months 12 and 24. A separate calculation was performed between months 12 and 24. […] The ANCOVA (SAS® PROC GLM) model used treatment group, baseline value of the outcome, number of GdE lesions at baseline and country/geographic region, as covariates. Additionally, analyses of percentage changes in WM volume were also adjusted for GM volume at baseline due to the imbalance that was found between treatment groups at baseline. The Hodges-Lehmann (HL) large sample median estimator associated with the ranked values analysis approach was used to construct two-sided 95% confidence limits for the difference in treatment effects. Percent thalamic volume changes from baseline to months 12 and 24 followed normal distribution and thus were analysed using a parametric MMRM (SAS® PROC MIXED) model corrected for baseline thalamic volume, number of baseline GdE lesions, country/geographic region, visit, treatment and visit by treatment interaction. The least square (LS) mean difference was used to estimate treatment effect. As noted for the % change in WM and GM volumes, percent thalamic volume change from month 12 to month 24 was analyzed using a separate analysis of covariance (ANCOVA) (SAS® PROC GLM) model, since these values […] from the MMRM model. The ANCOVA model used treatment group, baseline thalamic volume, number of baseline GdE lesions and country/geographic region, as covariates. GM at baseline was used as an additional covariate to account for between treatment group imbalance in this measure at baseline.

subjects with RRMS [2] = experiment: ALLEGRO phase III clinical trial of daily oral laquinimod 0.6 mg in RRMS; type: in vivo, human; conditions: laquinimod 0.6 mg daily oral, 24 months
Description: A multinational (24 countries), multicenter (approximately 139 sites), randomized, double-blinded, parallel-group, placebo-controlled clinical trial (“ALLEGRO” or MS-LAQ-301) was conducted to evaluate the efficacy, safety and tolerability of daily oral administration of laquinimod 0.6 mg in subjects with RRMS for a 24 months duration. One thousand one hundred and six (1106) patients were equally randomized to either laquinimod 0.6 mg or placebo and treated in a double-blind manner and baseline characteristics were balanced between groups. The primary endpoint of the study was the number of confirmed relapses during the double-blind treatment period, which corresponds to the annualized relapse rate (ARR—number of relapses divided by total exposure of all patients). Secondary endpoints included disability as measured by Expanded Disability Status Scale (EDSS) changes confirmed at 3 months, and cumulative number of gadolinium enhancing (GdE) and new/enlarging T2 MRI lesions. Double blind treatment phase: 24 months of once-daily oral administration of daily dose of 0.6 mg laquinimod or matching placebo. Eligible subjects were equally randomized 1:1 into one of the following treatment arms: • 1. Laquinimod capsules 0.6 mg: One 0.6 mg laquinimod capsule was administered orally once daily. The 0.6 mg laquinimod capsules contain 0.6 mg of Laquinimod Acid per capsule with meglumine, and were manufactured according to the method disclosed in PCT International Application Publication No. WO/2007/146248, published Dec. 21, 2007 (see, page 10, line 5 to page 11, line 3). • 2. Matching placebo for laquinimod arm: one capsule is administered once daily. The primary endpoint was the number of confirmed relapses during the double-blind study period. […] An event was counted as a relapse if the subject's symptoms were accompanied by observed objective neurological changes consistent with at least one of the following: an increase of at least 0.5 in the EDSS score; an increase of one grade in two or more of the seven functional systems; or an increase of two grades in one functional system. […] Secondary endpoints were disability progression as measured by the EDSS and the MSFC. […] Additional predefined disability endpoints include the proportion of patients without confirmed disability progression at 24 months; confirmed disability progression (defined as change in EDSS scores ≧1.0 points for baseline EDSS 0 to 5.0 or ≧5.5) sustained for six months; the accumulation of physical disability as measured by mean EDSS and the mean change in EDSS from baseline to last observed value (LOV). […]

[3] = test system: subject afflicted by tremor or spasticity; experiment: Example 3: oral laquinimod in treating tremor and spasticity; type: in vivo
Description: A composition comprising laquinimod as described herein is administered to a subject afflicted by tremor. […] A composition comprising laquinimod as described herein is administered to a subject afflicted by tremor. […] A composition comprising laquinimod as described herein is administered to a subject afflicted by spasticity. […] A composition comprising laquinimod as described herein is administered to a subject afflicted by tremor.

CCN(C(=O)c1c(O)c2c(Cl)cccc2n(C)c1=O)c1ccccc1 [Laquinimod]
Grey matter fraction, % change, median (range) (subjects with RRMS [1]; baseline to month 12): −0.3 (−19.4 to 22.4) % | Thalamic fraction, % change, LS mean (SE) (subjects with RRMS [1]; baseline to month 12): −0.6 (0.12) % | White matter fraction, % change, median (range) (subjects with RRMS [1]; baseline to month 12): 0.0 (−24.7 to 11.9) % | Grey matter fraction, treatment effect (Hodges-Lehmann median estimate for treatment difference) (subjects with RRMS [1]; baseline to month 12): 0.502* % | Thalamic fraction, treatment effect (LS mean difference) (subjects with RRMS [1]; baseline to month 12): 0.408^† % | White matter fraction, treatment effect (Hodges-Lehmann median estimate for treatment difference) (subjects with RRMS [1]; baseline to month 12): 0.394* % | Grey matter fraction, % change, median (range) (subjects with RRMS [1]; baseline to month 24): −0.9 (−17.4 to 21.2) % | Thalamic fraction, % change, LS mean (SE) (subjects with RRMS [1]; baseline to month 24): −1.3 (0.15) % | White matter fraction, % change, median (range) (subjects with RRMS [1]; baseline to month 24): −0.3 (−27.3 to 19.2) % | Grey matter fraction, treatment effect (Hodges-Lehmann median estimate for treatment difference) (subjects with RRMS [1]; baseline to month 24): 0.372* % | Thalamic fraction, treatment effect (LS mean difference) (subjects with RRMS [1]; baseline to month 24): 0.60^† % | White matter fraction, treatment effect (Hodges-Lehmann median estimate for treatment difference) (subjects with RRMS [1]; baseline to month 24): 0.327* % | Grey matter fraction, % change, median (range) (subjects with RRMS [1]; month 12 to month 24): −0.7 (−11.5 to 16.6) % | Thalamic fraction, % change, LS mean (SE) (subjects with RRMS [1]; month 12 to month 24): −0.7 (0.13) % | White matter fraction, % change, median (range) (subjects with RRMS [1]; month 12 to month 24): −0.2 (−15.3 to 15.0) % | Grey matter fraction, treatment effect (Hodges-Lehmann median estimate for treatment difference) (subjects with RRMS [1]; month 12 to month 24): −0.078* % | Thalamic fraction, treatment effect (LS mean difference) (subjects with RRMS [1]; month 12 to month 24): 0.233^† % | White matter fraction, treatment effect (Hodges-Lehmann median estimate for treatment difference) (subjects with RRMS [1]; month 12 to month 24): −0.013* % | Treatment effect of laquinimod on thalamic fraction (subjects with RRMS [1]; 12 months (p=0.018)): statistically significant | Treatment effect of laquinimod on thalamic fraction (subjects with RRMS [1]; 24 months (p<0.0001)): statistically significant | Treatment effect of laquinimod on thalamic fraction change vs placebo (subjects with RRMS [1]; patients without T2 thalamic lesions at baseline, month 12 or 24): not significantly different | Annualized relapse rates (subjects with RRMS [2]): effectively reduced annualized relapse rates | Brain atrophy (subjects with RRMS [2]): reduced brain atrophy | Development of new lesions (subjects with RRMS [2]): reduced the development of new lesions | Progression of disability (subjects with RRMS [2]): slowed the progression of disability | Spasticity in the subject ([3]; subject afflicted by spasticity): effective to inhibit spasticity; also recorded: effective to reduce spasticity | Tremor in the subject ([3]; subject afflicted by tremor): effective to inhibit tremor; also recorded: effective to reduce tremor

From patent US20160296511A1, “LAQUINIMOD FOR REDUCING THALAMIC DAMAGE IN MULTIPLE SCLEROSIS” (Teva Pharmaceutical Industries, Ltd., priority 2012, published 2016)
